From ChEMBL document CHEMBL5579815, “Novel angiogenesis inhibitors with superoxide anion radical amplification effect: Surmounting the Achilles' heels of angiogenesis inhibitors and photosensitizers” (Eur J Med Chem, 2024) come the findings set out here.

Molecules are shown by their SMILES. The source made the active and inactive calls. The rule behind the calls is not given here.

For orientation: IC50 means the concentration that gives 50% inhibition.

Assay [1] in a line: Induction of ROS generation in methanol solution assessed as reduction in DPBF absorption peak at 10 uM irradiated with 650 nm 10 mW/cm2 light for upto 9 mins by DPBF probe based UV-vis absorption spectra analysis. The assay is classed as functional.
The test system of assay [2] is SK-MEL-28. As to the kind of experiment: Cytotoxicity against human SK-MEL-28 cells assessed as reduction in cell viability at 0.008 to 1 uM preincubated for 24 hrs under normoxic condition followed by media removal and irradiated with 650 nm 10 mW/cm2 light for 15 mins under normoxic condition prior to media replacement and measured after 24 hrs by MTT assay. The assay is classed as functional, cell-based. Particulars: dose 0.008-1 µM.

The test system of assay [3] is SK-MEL-28. Description: Cytotoxicity against human SK-MEL-28 cells assessed as reduction in cell viability at 0.008 to 1 uM preincubated for 24 hrs under hypoxic condition followed by media removal and irradiated with 650 nm 10 mW/cm2 light for 15 mins under hypoxic condition prior to media replacement and measured after 24 hrs by MTT assay. The assay is classed as functional, cell-based. Particulars: dose 0.008-1 µM. Background: Formazan colour is commonly taken as a measure of viable cells.

Assay [4] can be described thus: Induction of ROS generation in methanol solution assessed as increase in superoxide anion radical level by measuring increase in DHR123 fluorescence intensity at 10 uM irradiated with 650 nm 10 mW/cm2 light for upto 15 mins by DHR123 probe based fluorescence spectra analysis. The class given is functional.
A short description of assay [5]: Induction of ROS generation in methanol solution assessed as increase in singlet oxygen level by measuring reduction in ABDA absorption peak at 10 uM irradiated with 650 nm 10 mW/cm2 light for upto 9 mins by ABDA probe based UV-vis absorption spectra analysis. The class given is functional.
In assay [6] the test system is SK-MEL-28. Description: Cytotoxicity against human SK-MEL-28 cells assessed as reduction in cell viability by MTT assay. The assay is classed as functional, cell-based.
Assay [7] concerns SK-MEL-28. Description: Cytotoxicity against human SK-MEL-28 cells assessed as reduction in cell viability preincubated for 24 hrs under normoxic condition followed by media removal and irradiated with 650 nm 10 mW/cm2 light for 15 mins under normoxic condition prior to media replacement and measured after 24 hrs by MTT assay. The class given is functional, cell-based. Particulars: SK-MEL-28, light or radiation study.

For assay [8], the system named is SK-MEL-28. Description: Cytotoxicity against human SK-MEL-28 cells assessed as reduction in cell viability preincubated for 24 hrs under hypoxic condition followed by media removal and irradiated with 650 nm 10 mW/cm2 light for 15 mins under hypoxic condition prior to media replacement and measured after 24 hrs by MTT assay. Particulars: SK-MEL-28, light or radiation study. The assay is classed as functional, cell-based.

Regarding `CCN(CC)c1ccc2nc3c4ccccc4/c(=N\CCCCCCn4cc(CCNC(=O)c5cc(Oc6ccc(NC(=O)Nc7ccc(Cl)c(C(F)(F)F)c7)cc6)ccn5)nn4)cc-3sc2c1`, the outcome in assay [1], in assay [2], in assay [3] and in assay [4] was Active. The result in assay [5] was inactive.

As for `CCN(CC)c1ccc2nc3c4ccccc4/c(=N\CCCCCCn4cc(CCCCNC(=O)c5cc(Oc6ccc(NC(=O)Nc7ccc(Cl)c(C(F)(F)F)c7)cc6)ccn5)nn4)cc-3sc2c1`, the result in assay [1], in assay [2], in assay [3] and in assay [4] was Active. Further, in assay [5], the result was inactive.

Consider `CCN(CC)c1ccc2nc3c4ccccc4/c(=N\CCCCCC(=O)Nc4cccc(-c5cn(Cc6ccc(-c7ccc(OC)nc7)cc6)nn5)c4)cc-3sc2c1`, for which the result in assay [1] and in assay [4] was Active. Also, the outcome in assay [5] was inactive.

In the case of `CCN(CC)c1ccc2nc3c4ccccc4/c(=N\CCCCCCNC(=O)CC(=O)Nc4cccc(-c5cn(Cc6ccc(-c7ccc(OC)nc7)cc6)nn5)c4)cc-3sc2c1`, the outcome in assay [1] and in assay [4] was Active. Besides, the result in assay [5] was inactive.

As to `CCN(CC)c1ccc2nc3c4ccccc4/c(=N\CCCCCC(=O)NCCNC(=O)c4cc(Oc5ccc(NC(=O)Nc6ccc(Cl)c(C(F)(F)F)c6)cc5)ccn4)cc-3sc2c1`, the result in assay [1], in assay [2], in assay [3] and in assay [4] was Active. The result in assay [5] was inactive.

On to `CCN(CC)c1ccc2nc3c4ccccc4/c(=N\CCCCCCn4cc(CNC(=O)c5cc(Oc6ccc(NC(=O)Nc7ccc(Cl)c(C(F)(F)F)c7)cc6)ccn5)nn4)cc-3sc2c1`, for which the outcome in assay [1], in assay [2], in assay [3] and in assay [4] was Active. For the same molecule, in assay [5], the result was inactive.

As to `CCN(CC)c1ccc2nc3c4ccccc4/c(=N\CCCCCCN=[N+]=[N-])cc-3sc2c1`, the result in assay [1] and in assay [4] was Active. The outcome in assay [5] was inactive.

As to `CNC(=O)c1cc(Oc2ccc(NC(=O)Nc3ccc(Cl)c(C(F)(F)F)c3)cc2)ccn1` [SORAFENIB], in assay [6], the IC50 stood at 9.49 µM.

Consider `CCN(CC)c1ccc2nc3c4ccccc4/c(=N\CCCCCCNC(=O)CCC(=O)Nc4cccc(-c5cn(Cc6ccc(-c7ccc(OC)nc7)cc6)nn5)c4)cc-3sc2c1`, for which the outcome in assay [1] and in assay [4] was Active. Besides, the outcome in assay [5] was inactive.

Take `CCN(CC)c1ccc2nc3c4ccccc4/c(=N\CCCCCC(=O)NCCCNC(=O)c4cc(Oc5ccc(NC(=O)Nc6ccc(Cl)c(C(F)(F)F)c6)cc5)ccn4)cc-3sc2c1`: the result in assay [1], in assay [2], in assay [3] and in assay [4] was Active. The outcome in assay [5] was inactive.

Turning to `CCN(CC)c1ccc2nc3c4ccccc4/c(=N\CCCCCCn4cc(CCC(=O)Nc5cccc(-c6cn(Cc7ccc(-c8ccc(OC)nc8)cc7)nn6)c5)nn4)cc-3sc2c1`, the outcome in assay [1] and in assay [4] was Active. In assay [5], the outcome was inactive.

For `CCN(CC)c1ccc2nc3c4ccccc4/c(=N\CCCCCC(=O)O)cc-3sc2c1`, the result in assay [1] and in assay [4] was Active. The outcome in assay [5] was inactive.

With `CCN(CC)c1ccc2nc3c4ccccc4/c(=N\CCCCCCn4cc(CCCC(=O)Nc5cccc(-c6cn(Cc7ccc(-c8ccc(OC)nc8)cc7)nn6)c5)nn4)cc-3sc2c1`, the outcome in assay [1] and in assay [4] was Active. In assay [5], the outcome was inactive.

Turning to `CCN(CC)c1ccc2nc3c4ccccc4/c(=N\CCCCCCN)cc-3sc2c1`, the result in assay [1] and in assay [4] was Active. Besides, the results for the IC50 in assay [7] and in assay [8] were 14.2 µM and > 20 µM, respectively. Further, the outcome in assay [5] was inactive.
